Source: patent US3987177A, “Vincaminic acid esters” (Synthelabo, priority 1974, dated 1976)
Where a name gives a salt, the structure may show the parent alone. Read-outs that look alike come from different tables or passages of the source.

Key:
[1] = tested on: Mice of the CD1 strain; experiment: Anoxia test on mice under low (oxygen) pressure conditions; assay type: in vivo; conditions: for Protective activity in the anoxia test under reduced pressure conditions, MAD (mean active dose, increases the survival time by 100%): CD1 mice, intraperitoneally 10 minutes before the test, 190 mm of mercury (5.25% oxygen), expressed as the base; for anti-anoxia activity compared to vincamine: mice, in words
Protocol: Mice of the CD1 strain are kept in an atmosphere depleted in oxygen, by producing a partial vacuum (190 mm of mercury, corresponding to 5.25% of oxygen).
The survival time of the animals is noted. This time is increased by agents capable of assisting tissue oxygenation and in particular cerebal oxygenation. The compounds studied are administered in several doses intraperitoneally 10 minutes before the test. The percentage increases in the survival time relative to the values obtained with comparison animals are calculated. The mean active dose (MAD), the dose which increases the survival time by 100%, is determined graphically.

[2] = tested on: mice of the strain CD1; experiment: Acute toxicity (50% lethal dose) in mice; assay type: in vivo; conditions: for toxicity compared to vincamine, lower by a factor, intraperitoneal: intraperitoneally; for toxicity compared to vincamine, lower by a factor, intraperitoneal / toxicity compared to vincamine, lower by a factor, oral: factor vs vincamine; for toxicity compared to vincamine, lower by a factor, oral: orally
[3] = Water solubility; assay type: physicochemical; conditions: methylsulphonic acid salt
[4] = Acute toxicity (50% lethal dose) in mice; assay type: in vivo; conditions: mouse, in vivo
[5] = tested on: femoral artery of dogs; conditions: in words; no test or source given; cited from earlier work
[6] = ip, CD1 mice, intraperitoneal, mortality recorded for 7 days, read-out: Acute toxicity LD50, intraperitoneal
[7] = mice, oral, read-out: Acute toxicity LD50, oral

| Compound | Protective activity in the anoxia test under reduced pressure conditions, MAD (mean active dose, increases the survival time by 100%) [1] | anti-anoxia activity compared to vincamine [1] | Acute toxicity LD50, intraperitoneal ([2]; CD1 mice, intraperitoneal, mortality recorded for 7 days) | toxicity compared to vincamine, lower by a factor, intraperitoneal ([2]; mice) | Acute toxicity LD50, oral ([2]; mice, oral, 10080 min) | toxicity compared to vincamine, lower by a factor, oral ([2]; mice) | water solubility (in words) [3] | LD50 at 168 h [4, 6] | LD50 at 168 h [4, 7] | vasodilating activity compared to papaverine (known compounds) [5] |
| --- | --- | --- | --- | --- | --- | --- | --- | --- | --- | --- |
| CC[C@@]12C=C(C(=O)OC3CC(C)CC(C)(C)C3)n3c4c(c5ccccc53)CCN(CCC1)[C@H]42.Cl (some centres unmarked) [Example 1, 3,3,5-Trimethylcyclohexyl apovincaminate] | 5.5 mg/kg | markedly greater than that of vincamine | 430 mg/kg | 2 | 2100 mg/kg | about 5 |  |  |  |  |
| CCC12C=C(C(=O)OC3CC(C)CC(C)(C)C3)n3c4c(c5ccccc53)CCN(CCC1)C42 (centres unmarked) [Example 3, methylsulphonic acid salt of 3,3,5-trimethylcyclohexyl apovincaminate] | 5 mg/kg | markedly greater than that of vincamine |  | 2 |  | about 5 | water-soluble | 440 mg/kg | 2800 mg/kg |  |
| CC[C@]12CCCN3CCc4c(n(c5ccccc45)[C@@](O)(C(=O)OC)C1)[C@@H]32 [Vincamine, reference compound] | 8 mg/kg |  |  |  |  |  |  | 215 mg/kg | 460 mg/kg | at most equal to that of papaverine |
